Measured values: US20090182028A1, “Plant Components and Extracts and Uses Thereof” (G.I.M. GESELLSCHAFT-FUR INNOVATIVE MEDIZIN G.M.B.H NFG OHG, priority 2006, published 2009)
“Also recorded” adds a separate entry of the source. Like-named read-outs stand apart in the source and are kept apart here. Blank lines part the entries; values can stand above or below the molecule they belong to.

Assays:
Assay type in all cases: cell-based
[1] = biological target: T1, human AhR (Homo sapiens, UniProt P35869); assay: Yeast AhR screen (strain YCM3), assay in plastic tubes
T1 construct: expressed in transfected cells; host or cells: Saccharomyces cerevisiae strain YCM3 (gift of Charles Miller)
Text: (§1) The yeast AhR screen is an in-vitro test to detect transactivating potential of substances on the arylhydrocarbon receptor. The recombinant yeast strain YCM3 of Saccharomyces cerevisiae, which was a present of Charles Miller, was used. The assay procedure was essentially as described by Miller. The human AhR and ARNT genes are integrated into chromosome III of the yeast. The galactose-regulated GAL 1, 10 promotor is accountable for the expression of AhR and ARNT in equal shares by induction with galactose, the carbon source of the medium (GOLD medium-trp). If a ligand of the AhR is present, an AhR/ARNT heterodimer is built and can bind to the five xenobiotic response elements of the lacZ-reporter plasmid and induce the expression of the lacZ-gene. Therefore the transcriptional activation of a ligand is quantified via β-galactosidase activity. […] The yeast AhR assay was performed in 50 ml plastic tubes with conical bottom and in microtiterplates.
A colony of YCM3 was transferred in SCM-trp medium and grown to OD600 of about 2.0. For each experiment a new overnight culture was prepared in SCM-trp medium. For this purpose a 1:10 dilution of the YCM3 yeast stock in SCM-trp medium was prepared. After incubation overnight the culture was diluted to an OD600 of 0.4 and grown again to an OD600 of 1.0 to 1.5. For the assay the culture was 1:50 diluted in Gold galactose-trp media, which contains 1.2% galactose as the inductor. 50 μl of test substance (dissolved in DMSO) and 5 ml of this yeast culture were incubated for 17 h at 30° C. while shaking. The tubes have to be in an inclined position for optimal yeast growth. For the blank only 50 μl of DMSO were added to the yeast culture. A calibration curve with β-naphtoflavone was performed within each test run. After incubation cells were collected by centrifugation at 2500 rpm for 5 min. The supernatant was discarded, the pellets were resuspended in 1 ml lacZ-buffer, transferred into 1.5 ml test tubes and centrifuged at 10 000 rpm and 4° C. for 5 min. The supernatant was removed again and the pellets were resuspended in 100 μl lacZ buffer. Disintegration of the yeast cells was performed by vortexing with glass beads (3 times for 30 s with a rest on ice of 15 s between the vortexes). After centrifugation at 10 000 rpm and 4° C. for 10 min, the clear supernatant was used to perform the β-galactosidase and the protein-assay.
For the β-galactosidase-assay 5 μl from each test tube were transferred to a 96-well microtiterplate. 250 μl of a 1:6 diluted o-nitrophenyl-b-galactopyranoside (ONPG)-solution (dilution with lacZ-buffer) were added to each well. The microtiterplate was incubated at 37° C. until a yellow colour had developed. The reaction was stopped by adding 100 μl of 1 M Na2CO3 and the reaction time was noticed. […] Each determination was carried out in duplicates.
For the protein assay a modified method according to Bradford was performed. 5 μl of the supernatant of each test tube were transferred to the microtiterplate and 250 μl of Bio-Rad protein assay reagent (diluted with water 1:10) were added. […] As reference a standard curve with BSA was employed within each test. Each determination was carried out in duplicates.
The expression of β-galactosidase is equivalent to the quantity of the transactivating activity of substances and samples. The specific enzyme activity is expressed in AhR-units, which are the β-galactosidase-activity normalised to the total protein-level. The data were evaluated according Jungbauer et al..
(§2) For evaluation the AhR-units are plotted against the concentration (logarithmic scaling). The resulting curve is fitted using a logistic dose response function. The calculation and fitting was performed with Table Curve 2D software (Jandel Scientific).

[2] = biological target: T1, human AhR; assay: Yeast AhR screen (strain YCM3), assay in microtiterplate
Text: as §1
A colony of YCM3 was transferred in SCM-trp medium and grown to OD600 of about 2.0. For each experiment a new overnight culture was prepared in SCM-trp. For this purpose a 1:10 dilution of the YCM3 yeast stock in SCM-trp medium was prepared. After incubation overnight the culture was diluted to an OD600 of 0.4 and grown again to an OD600 of 1.0 to 1.5. For the assay the culture was 1:50 diluted in Gold galactose-trp media, which contains 1.2% galactose as the inductor.
1 μl of test substance (dissolved in DMSO) and 100 μl of the yeast culture in galactose media were transferred in the wells (flat bottom) of a 96-well sterile microtiterplate. Each determination was carried out in duplicates. A calibration curve with β-naphtoflavone was performed within each test run. For better results only the inner part of the plate was used for the assay, because of a greater evaporation in the outer wells (row A and H, column 1 and 12). 150 μl of the diluted yeast culture were transferred into the outer wells. The microtiterplate was incubated for 17 h at 30° C. and while shaking.
The disintegration of the assay was performed with N-lauroylsarcosine, a strong detergent. A related method was described by Kippert, who used 1.5 ml centrifuge tubes and a disintegration with a 0.2% sarcosyl-solution. For the microtiterplate assay a modified version was used and the disintegration was performed via a 0.5% sarcosyl-solution. To circumvent a centrifugation of the plate and a transfer of the supernatant in another plate, what would complicate the assay unnecessarily, the calculation of the AhR-units was related to the optical density of 600 nm, instead of the protein level. A similar proceeding was applied by Adachi et al. and Miller.
After incubation 150 μl Z-Sarcosyl-buffer to each well were added. Then the OD was measured at 600 nm. For complete disintegration of the cells the plate was incubated for 20 min at 30° C. Afterwards 50 μl of ONPG-solution (a 1:6 diluted) were added to each well and incubated at 37° C. until a yellow colour had developed. The reaction was stopped by adding of 50 μl 1 M Na2CO3 and the reaction time was noticed. The absorption was measured at 405 nm (reference wavelength 620 nm).
The results of the β-galactosidase-assay of the AhR screen in microtiterplates were referenced to cell density (measured as the optical cell density at a wavelength of 600 nm). The calculation of the AhR-units is realised as follows:
OD405 and OD600 are the optical densities at a wavelength of 405 nm respectively 600 nm and Δt is the incubation time at 37° C. in minutes.
as §2

[3] = biological target: T1, human AhR; assay: Yeast AhR assay, format (tubes or microtiterplate) not stated
Text: as §1, §2
The equivalent concentrations of the extracts and samples were calculated from the logistic dose-response curve of β-naphtoflavone (FIG. 8) and expressed as nmol β-naphtoflavone per g sample or volume of sample.

[4] = in plastic tubes, logistic dose response fit
[5] = in microtiterplate, logistic dose response fit
[6] = in microtiterplate, logistic dose response fit, read-out: Potency

T1 sequence (P35869 11-848): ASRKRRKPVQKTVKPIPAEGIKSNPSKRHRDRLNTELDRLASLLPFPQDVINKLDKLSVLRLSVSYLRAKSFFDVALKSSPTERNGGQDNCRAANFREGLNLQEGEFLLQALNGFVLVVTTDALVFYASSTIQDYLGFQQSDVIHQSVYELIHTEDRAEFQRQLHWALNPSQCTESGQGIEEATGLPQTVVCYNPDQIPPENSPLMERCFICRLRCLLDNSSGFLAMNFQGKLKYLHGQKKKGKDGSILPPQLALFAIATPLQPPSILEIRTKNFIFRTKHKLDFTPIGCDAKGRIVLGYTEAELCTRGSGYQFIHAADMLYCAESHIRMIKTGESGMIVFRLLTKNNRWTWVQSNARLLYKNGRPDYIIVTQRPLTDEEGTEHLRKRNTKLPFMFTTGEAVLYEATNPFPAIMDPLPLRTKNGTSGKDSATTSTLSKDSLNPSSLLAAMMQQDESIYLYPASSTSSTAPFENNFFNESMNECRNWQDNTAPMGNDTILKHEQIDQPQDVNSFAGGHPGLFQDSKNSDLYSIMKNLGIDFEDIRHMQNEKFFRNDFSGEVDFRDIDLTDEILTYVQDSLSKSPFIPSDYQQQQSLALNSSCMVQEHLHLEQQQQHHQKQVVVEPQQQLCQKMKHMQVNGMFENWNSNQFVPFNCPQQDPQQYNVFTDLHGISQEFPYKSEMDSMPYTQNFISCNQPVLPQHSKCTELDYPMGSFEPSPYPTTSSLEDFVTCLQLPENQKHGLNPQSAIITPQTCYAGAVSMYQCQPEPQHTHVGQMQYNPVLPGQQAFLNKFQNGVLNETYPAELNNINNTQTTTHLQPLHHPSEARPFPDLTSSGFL
T1 sequence (P27540 whole entry partner): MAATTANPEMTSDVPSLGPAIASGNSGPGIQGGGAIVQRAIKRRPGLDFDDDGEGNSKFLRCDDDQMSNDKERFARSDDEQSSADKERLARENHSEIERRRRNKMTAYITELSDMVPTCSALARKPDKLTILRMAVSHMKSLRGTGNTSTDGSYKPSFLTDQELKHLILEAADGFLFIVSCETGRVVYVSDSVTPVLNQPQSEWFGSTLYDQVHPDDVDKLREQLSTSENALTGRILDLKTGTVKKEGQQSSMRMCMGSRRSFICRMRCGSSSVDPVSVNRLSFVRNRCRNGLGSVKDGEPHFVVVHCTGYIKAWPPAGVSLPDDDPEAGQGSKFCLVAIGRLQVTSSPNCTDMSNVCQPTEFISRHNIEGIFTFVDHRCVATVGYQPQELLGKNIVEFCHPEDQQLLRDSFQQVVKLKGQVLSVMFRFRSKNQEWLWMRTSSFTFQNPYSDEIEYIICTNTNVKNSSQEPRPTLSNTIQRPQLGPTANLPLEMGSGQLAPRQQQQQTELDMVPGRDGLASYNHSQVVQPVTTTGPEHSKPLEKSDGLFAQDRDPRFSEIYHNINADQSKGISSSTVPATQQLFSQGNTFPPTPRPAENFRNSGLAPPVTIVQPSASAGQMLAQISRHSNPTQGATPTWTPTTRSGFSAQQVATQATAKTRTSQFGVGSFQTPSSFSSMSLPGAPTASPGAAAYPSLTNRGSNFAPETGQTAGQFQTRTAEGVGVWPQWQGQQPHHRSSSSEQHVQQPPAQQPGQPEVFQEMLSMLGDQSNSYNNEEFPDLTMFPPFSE

Molecule: O=c1oc2cc(O)ccc2c2oc3cc(O)ccc3c12 [Coumestrol]
EC50 [1]: 2090 nM
EC50 [2]: 1040 nM

Molecule: Oc1ccc([C@H]2COc3cc(O)ccc3C2)cc1 [Equol]
Potency (mol/l) [1]: active^c
transactivation of the AhR (in words) ([1]; pure compounds in DMSO): a transactivation took place
Potency (mol/l) [2]: active^c

Molecule: COc1cc(/C=C/C(=O)CC(=O)/C=C/c2ccc(O)c(OC)c2)ccc1O [Curcumin]
Potency (mol/l) [1, 4]: no activity

Molecule: CC(=O)[C@H]1CC[C@H]2[C@@H]3CCC4=CC(=O)CC[C@]4(C)[C@H]3CC[C@]12C [Progesteron]
Potency (mol/l) [1, 4]: no activity
transactivation of the AhR (in words) ([1]; pure compounds in DMSO): failed also in transactivating the AhR

Molecule: COc1ccc(-c2cc(=O)c3c(O)cc(O[C@@H]4O[C@H](CO[C@@H]5O[C@@H](C)[C@H](O)[C@@H](O)[C@H]5O)[C@@H](O)[C@H](O)[C@H]4O)cc3o2)cc1O [Diosmin]
Potency (mol/l) [1, 4]: no activity

Molecule: O=C(O)/C=C/c1ccc(O)c(O)c1 [Caffeic acid]
Potency (mol/l) [1, 4]: no activity
transactivation of the AhR (in words) ([1]; pure compounds in DMSO): no activity

Molecule: O=C1C[C@@H](c2ccc(O)cc2)Oc2cc(O)cc(O)c21 [Naringenin]
Potency (mol/l) [1, 4]: active ^c
transactivation of the AhR (in words) ([1]; pure compounds in DMSO): a transactivation took place
Potency (mol/l) [2, 5]: active ^c

Molecule: COc1ccc(-c2coc3cc(O)cc(O)c3c2=O)cc1 [Biochanin A]
EC50 [1]: 599 nM
EC50 [2, 6]: 125 nM

Molecule: CC[C@H](CC[C@@H](C)[C@H]1CC[C@H]2[C@@H]3CC=C4C[C@@H](O)CC[C@]4(C)[C@H]3CC[C@]12C)C(C)C [β-Sitosterol]
Potency (mol/l) [1, 4]: no activity
transactivation of the AhR (in words) ([1]; pure compounds in DMSO): failed also in transactivating the AhR

Molecule: O=c1c(-c2ccc(O)cc2)coc2cc(O)ccc12 [Daidzein]
Potency (mol/l) [1]: no activity

Molecule: CCCCOC(=O)c1ccccc1C(=O)OCCCC [Phtalic acid dibutyl ester]
Potency (mol/l) [1]: no activity

Molecule: O=c1cc(-c2ccc(O)cc2)oc2cc(O)cc(O)c12 [Apigenin]
Potency (mol/l) [1]: active^c
transactivation of the AhR (in words) ([1]; pure compounds in DMSO): a transactivation took place
Potency (mol/l) [2, 5]: active^c

Molecule: C[C@]12CC[C@@H]3c4ccc(O)cc4CC[C@H]3[C@@H]1CC[C@@H]2O [17-β-Estradiol]
Potency (mol/l) [1, 4]: no activity

Molecule: O=C(Cc1c[nH]c2ccccc12)c1ccco1 [compound “X”, 1-(2-furanyl)2-(3-indolyl)ethanone]
equivalent concentration ([3]; preliminary isolate from preparative HPLC): 79 μmol β-naphtoflavone per gram sample

Molecule: Catechin
Potency (mol/l) [1, 4]: no activity

Molecule: O=C(O)c1cc(O)c(O)c(O)c1 [Gallic acid]
Potency (mol/l) [1]: no activity
transactivation of the AhR (in words) [1]: no activity

Continued, in another order:

transactivation of the AhR (in words) ([1]; pure compounds in DMSO): failed also in transactivating the AhR
Molecule: CC/C(=C(/CC)c1ccc(O)cc1)c1ccc(O)cc1 [diethylstilbestrol]

Potency (mol/l) [1, 4]: no activity
Molecule: O=c1c(O)c(-c2ccc(O)c(O)c2)oc2cc(O)cc(O)c12 [Quercetin]
transactivation of the AhR (in words) ([1]; pure compounds in DMSO): no activity; also recorded: do not activate the AhR

EC50 [1]: 923 nM
EC50 [2]: 253 nM
EC50 [3]: 120 to 920 nM
Molecule: COc1ccc(-c2coc3cc(O)ccc3c2=O)cc1 [Formononetin]

EC50 [2]: 7000 nM
EC50 [3]: 7000 nM
Molecule: OCc1c[nH]c2ccccc12 [Indole-3-carbinol]

Potency (mol/l) [1]: no activity
transactivation of the AhR (in words) [1]: no activity
Molecule: COc1ccc(-c2cc(=O)c3c(OC)c(OC)c(OC)c(OC)c3o2)cc1 [Tangeritin]

Potency (mol/l) [1, 4]: no activity
Molecule: Oc1cc(O)c2c(c1)O[C@H](c1ccc(O)c(O)c1)[C@H](O)C2 [Epicatechin]

Potency (mol/l) [1, 4]: no activity
Molecule: O=C(CCc1ccc(O)cc1)c1c(O)cc(O)cc1O [Phloretin]

Potency (mol/l) [1, 4]: no activity
transactivation of the AhR (in words) ([1]; pure compounds in DMSO): no activity
Molecule: COc1cc(/C=C/C(=O)O)ccc1O [Ferulic acid]

EC50 ([1]; in plastic tubes, logistic dose response fit, read-out: Potency): 10 nM
EC50 [2, 6]: 280 nM
EC50 ([3]; Example 10 text, read-out: EC50 value of the standard compound): ~10 nM
EC50 ([3]; reference standard, read-out: EC50 value): 28 nM
Molecule: O=c1cc(-c2ccccc2)oc2ccc3ccccc3c12 [β-Naphtoflavone]

Potency (mol/l) [1, 4]: no activity
Molecule: O=c1c(-c2ccc(O)cc2)coc2cc(O)cc(O)c12 [Genistein]
transactivation of the AhR (in words) ([1]; pure compounds in DMSO): no transcriptional activity; also recorded: do not activate the AhR
